Data taken from US20260327655A1, “SMALL-MOLECULE REGULATED ALTERNATIVE SPLICING” (priority 2023, published 2026).

Experiments:
RS1-10, Flp-In-293 cells = assay: Comparison of RS1-10 Flp-In cell line with constitutive Flp-In cell line; type: cell-based; conditions: Homo sapiens, 7 nM, 18 hours, FIG. 9G, read-out: luciferase signal relative to constitutively expressing cell line as 100%
Procedure: Single-copy insertion of RSI-10 sequence and subsequent cell-line generation was performed in Flp-In-293 cells according to manufacturer's protocols. The RS1-10 sequence fused to a Firefly Luciferase gene was cloned into a Flp-In compatible pcDNA5/FRT expression vector with a CMV promoter and BGH polyadenylation signal. The resulting Flp-In cell line carried a single-copy expression cassette of RS1-10 integrated into the genome. Similarly, a cell line constitutively expressing Firefly Luciferase from a single-copy genomic insertion was generated in Flp-In-293 cells. For the constitutive cell line, only the Firefly Luciferase gene was cloned into the pcDNA5/FRT expression vector that was used to generate the single-copy genomic insertion. Both cell lines were cultured in DMEM+10% FBS, collected after trypsinization, and then dispensed into 96-well plates (cell culture-treated). Each well of the plate was seeded with 1.0×10^5 cells in 100 μL culture medium. Subsequently, either DMSO vehicle or 24 A at specified doses was added to the wells of the plate containing the RS1-10 Flp-In 293 cells. Triplicate wells were used for each condition tested in the experiment. Plates were then incubated for 18 hours in a tissue culture incubator (5% CO2, 37 degrees C.). […]

[1] = test system: RS1-10 minigene (Firefly Luciferase), HEK-293T cells; assay: Luciferase induction assay, RS1-10 with splice modulator compounds in HEK-293T cells; type: cell-based; conditions: Homo sapiens, 18 hours, n of 3, read-out: Mean fold-induction of luciferase (relative to vehicle control)
RS1-10 = assay: Dose-response profiling assay, RS1-10 Flp-In-293 cell line; type: cell-based; conditions: 18 hours, FIGS. 9D-9F
Procedure: Single-copy insertion of an switch construct and subsequent cell-line generation was performed in Flp-In-293 cells according to manufacturer's protocols. The RS1-10 sequence fused to a Firefly Luciferase gene was cloned into a Flp-In compatible pcDNA5/FRT expression vector with a CMV promoter and BGH polyadenylation signal. Resulting Flp-In cell line carried a single-copy expression cassette (RSwitch-controlled) integrated into the genome. The RS1-10 Flp-In cell line was cultured in DMEM+10% FBS, collected after trypsinization, and then dispensed into 96-well plates (cell culture-treated). Each well of the plate was seeded with 1.0×10^5 cells in 100 μL culture medium. Subsequently, either DMSO vehicle or a splice modulator compound at specified doses was added to the wells of the plate. Triplicate wells were used for each condition tested in the experiment. Plates were then incubated for 18 hours in a tissue culture incubator (5% CO2, 37° C.). Endpoint analysis was performed by adding 100 uL of a Luciferase substrate, such as Steady-Luc Firefly Luciferase substrate, to each well of the assay plate. The liquid contents of each was transferred to a 96-well plate, mixed again for 2 min on an orbital shaker, and incubated at room temperature for 5 min. Finally, the luminescent signal from each well was measured with a plate reader. Each plotted data point on a graph in a figure represents a mean of 3 wells+/−standard deviation normalized to vehicle controls. A nonlinear regression curve fit of the plotted data points was generated in graphing software.

RS4-1 and variants = assay: Luciferase induction assay, RS4-1 and variants in HEK-293T cells; type: cell-based, human; conditions: 18 hours, FIGS. 15A, 15B
Procedure: HEK-293T cells were cultured in DMEM+10% FBS, collected after trypsinization, and dispensed into 96-well plates (cell culture-treated). Each well of the plate was seeded with 1.0×10^5 cells in 100 μL culture medium. After a 1-hour incubation in the tissue culture incubator (5% CO2, 37° C.), plasmid DNA was complexed with a transfection reagent, such as Lipofectamine 3000, and added to respective wells on the plate. Each well received 100 ng of plasmid DNA complexed with 0.15 μL Lipofectamine 3000. The plasmids utilized in the experiment encoded a CMV promoter upstream of the RS4-1 construct and variants that controlled the expression of a Firefly Luciferase gene followed by a SV40 polyadenylation signal. After a 10-minute incubation at room temperature, either DMSO vehicle or 24 A at specified doses was added to the wells of the plate. Plates were then incubated for 18 hours in a tissue culture incubator. Endpoint analysis was performed by adding 100 uL of a Luciferase substrate, such as Steady-Luc Firefly Luciferase substrate, to each well of the assay plate. The liquid contents of each was transferred to a 96-well plate, mixed again for 2 min on an orbital shaker, and incubated at room temperature for 5 min. Finally, the luminescent signal from each well was measured with a plate reader. […]

CCN1CC(c2ccc(-c3ccc(-c4ccc5nn(C)cc5c4)cc3O)nn2)C1 [Compound 24A, 2-[6-(1-ethylazetidin-3-yl)pyridazin-3-yl]-5-(2-methyl-2H-indazol-5-yl)phenol]
activity at 0.007 µM (RS1-10, Flp-In-293 cells): ≥ 60%
fold induction at 0.1 µM ([1]; RS1-10, 100 nM): 74.1
fold induction at 1 µM ([1]; RS1-10, 1,000 nM): 84
fold-induction of luciferase signal, dose response (RS1-10): increase in fold-induction of luciferase signal with increasing concentrations
fold-induction of luciferase (RS4-1 and variants): increasing fold-induction of luciferase with increasing concentrations
